Test results taken from ChEMBL document CHEMBL3112450, “Synthesis and in vitro antitumor evaluation of primary amine substituted quinazoline linked benzimidazole” (Bioorg Med Chem Lett, 2014).

Key:
Assay type in all cases: functional
HOP-92 = assay: Cytotoxicity against human HOP92 cells assessed as cell growth at 10^-6 M after 48 hrs by SRB assay; conditions: HOP-92, 48 h, read-out: Activity
HCT-15 [1] = assay: Cytotoxicity against human HCT15 cells assessed as cell growth at 10^-6 M after 48 hrs by SRB assay; conditions: HCT-15, 48 h, read-out: Activity
SK-MEL-5 = assay: Cytotoxicity against human SK-MEL-5 cells assessed as cell growth at 10^-4 M after 48 hrs by SRB assay; conditions: SK-MEL-5, 48 h, read-out: Activity
OVCAR-8 [2] = assay: Cytotoxicity against human OVCAR8 cells assessed as cell growth at 10^-6 M after 48 hrs by SRB assay; conditions: OVCAR-8, 48 h, read-out: Activity
MDA-MB-435 [3] = assay: Cytotoxicity against human MDA-MB-435 cells after 48 hrs by SRB assay; conditions: MDA-MB-435, 48 h
SF-295 = assay: Cytotoxicity against human SF295 cells assessed as cell growth at 10^-8 M after 48 hrs by SRB assay; conditions: SF-295, 48 h, read-out: Activity
SK-MEL-2 = assay: Cytotoxicity against human SK-MEL-2 cells assessed as cell growth at 10^-8 M after 48 hrs by SRB assay; conditions: SK-MEL-2, 48 h, read-out: Activity
OVCAR-8 [4] = assay: Cytotoxicity against human OVCAR8 cells assessed as growth inhibition at 10 uM after 48 hrs by SRB assay; conditions: OVCAR-8, 48 h, read-out: GI
SW-620 = assay: Cytotoxicity against human SW620 cells assessed as cell growth at 10^-7 M after 48 hrs by SRB assay; conditions: SW-620, 48 h, read-out: Activity
MDA-MB-468 = assay: Cytotoxicity against human MDA-MB-468 cells assessed as cell growth at 10^-6 M after 48 hrs by SRB assay; conditions: MDA-MB-468, 48 h, read-out: Activity
HT-29 [5] = assay: Cytotoxicity against human HT-29 cells assessed as cell growth at 10^-6 M after 48 hrs by SRB assay; conditions: HT-29, 48 h, read-out: Activity
DU-145 [6] = assay: Cytotoxicity against human DU145 cells assessed as cell growth at 10^-6 M after 48 hrs by SRB assay; conditions: DU-145, 48 h, read-out: Activity
MDA-MB-435 [7] = assay: Cytotoxicity against human MDA-MB-435 cells assessed as cell growth at 10^-6 M after 48 hrs by SRB assay; conditions: MDA-MB-435, 48 h, read-out: Activity
CCRF-CEM = assay: Cytotoxicity against human CCRF-CEM cells after 48 hrs by SRB assay
HT-29 [8] = assay: Cytotoxicity against human HT-29 cells assessed as cell growth at 10^-7 M after 48 hrs by SRB assay; conditions: HT-29, 48 h, read-out: Activity
U-251 = assay: Cytotoxicity against human U251 cells assessed as cell growth at 10^-7 M after 48 hrs by SRB assay; conditions: U-251, 48 h, read-out: Activity
SR = assay: Cytotoxicity against human SR cells assessed as cell growth at 10^-7 M after 48 hrs by SRB assay; conditions: read-out: Activity
CAKI-1 = assay: Cytotoxicity against human Caki1 cells assessed as cell growth at 10^-7 M after 48 hrs by SRB assay; conditions: CAKI-1, 48 h, read-out: Activity
SF-539 = assay: Cytotoxicity against human SF539 cells assessed as cell growth at 10^-4 M after 48 hrs by SRB assay; conditions: SF-539, 48 h, read-out: Activity
K562 = assay: Cytotoxicity against human K562 cells after 48 hrs by SRB assay; conditions: K562, 48 h
M14 = assay: Cytotoxicity against human M14 cells assessed as cell growth at 10^-6 M after 48 hrs by SRB assay; conditions: M14, 48 h, read-out: Activity
SK-MEL-28 [9] = assay: Cytotoxicity against human SK-MEL-28 cells assessed as cell growth at 10^-6 M after 48 hrs by SRB assay; conditions: SK-MEL-28, 48 h, read-out: Activity
BT-549 [10] = assay: Cytotoxicity against human BT549 cells assessed as cell growth at 10^-8 M after 48 hrs by SRB assay; conditions: BT-549, 48 h, read-out: Activity
UACC-62 = assay: Cytotoxicity against human UACC62 cells assessed as cell growth at 10^-8 M after 48 hrs by SRB assay; conditions: UACC-62, 48 h, read-out: Activity
IGROV-1 = assay: Cytotoxicity against human IGROV1 cells assessed as cell growth at 10^-4 M after 48 hrs by SRB assay; conditions: IGROV-1, 48 h, read-out: Activity
RXF 393 = assay: Cytotoxicity against human RXF393 cells assessed as cell growth at 10^-7 M after 48 hrs by SRB assay; conditions: RXF 393, 48 h, read-out: Activity
KM12 = assay: Cytotoxicity against human KM12 cells assessed as cell growth at 10^-6 M after 48 hrs by SRB assay; conditions: KM12, 48 h, read-out: Activity
SK-MEL-28 [11] = assay: Cytotoxicity against human SK-MEL-28 cells assessed as cell growth at 10^-7 M after 48 hrs by SRB assay; conditions: SK-MEL-28, 48 h, read-out: Activity
A498 = assay: Cytotoxicity against human A498 cells after 48 hrs by SRB assay; conditions: A498, 48 h
Malme-3M = assay: Cytotoxicity against human MALME-3M cells assessed as cell growth at 10^-4 M after 48 hrs by SRB assay; conditions: read-out: Activity
LOX IMVI = assay: Cytotoxicity against human LOXIMVI cells assessed as cell growth at 10^-8 M after 48 hrs by SRB assay; conditions: read-out: Activity
HCT-15 [12] = assay: Cytotoxicity against human HCT15 cells assessed as cell growth at 10^-4 M after 48 hrs by SRB assay; conditions: HCT-15, 48 h, read-out: Activity
HOP-62 = assay: Cytotoxicity against human HOP62 cells assessed as cell growth at 10^-6 M after 48 hrs by SRB assay; conditions: HOP-62, 48 h, read-out: Activity
BT-549 [13] = assay: Cytotoxicity against human BT549 cells assessed as cell growth at 10^-7 M after 48 hrs by SRB assay; conditions: BT-549, 48 h, read-out: Activity
[14] = Cytotoxicity against human OVCAR5 cells assessed as cell growth at 10^-8 M after 48 hrs by SRB assay; conditions: OVCAR-5, 48 h, read-out: Activity
NCI-H23 = assay: Cytotoxicity against human NCI-H23 cells assessed as cell growth at 10^-6 M after 48 hrs by SRB assay; conditions: NCI-H23, 48 h, read-out: Activity
DU-145 [15] = assay: Cytotoxicity against human DU145 cells after 48 hrs by SRB assay; conditions: DU-145, 48 h
[16] = Cytotoxicity against human OVCAR4 cells assessed as cell growth at 10^-4 M after 48 hrs by SRB assay; conditions: OVCAR-4, 48 h, read-out: Activity

C=CCn1c(C)nc2ccc(Nc3nc(Nc4ccc(F)cc4)nc4ccccc34)cc21
growth at 1 µM (HOP-92): 41% | growth at 1 µM (HCT-15 [1]): 91% | growth at 100 µM (SK-MEL-5): -69% | growth at 1 µM (OVCAR-8 [2]): 93% | GI50 (MDA-MB-435 [3]): 4 µM | LC50 (concentration killing 50% of cells) (MDA-MB-435 [3]): 92.4 µM | TGI (MDA-MB-435 [3]): 20.4 µM | growth at 0.01 µM (SF-295): 84% | growth at 0.01 µM (SK-MEL-2): 98% | inhibition of growth at 10 µM (OVCAR-8 [4]): 50% | growth at 0.1 µM (SW-620): 95% | growth at 1 µM (MDA-MB-468): 64% | growth at 1 µM (HT-29 [5]): 91% | growth at 1 µM (DU-145 [6]): 95% | growth at 1 µM (MDA-MB-435 [7]): 90% | GI50 (CCRF-CEM): 3.01 µM | LC50 (CCRF-CEM): > 100 µM | TGI (CCRF-CEM): 11.7 µM | growth at 0.1 µM (HT-29 [8]): 101% | growth at 0.1 µM (U-251): 92% | growth at 0.1 µM (SR): 98% | growth at 0.1 µM (CAKI-1): 102% | growth at 100 µM (SF-539): -92% | GI50 (K562): 3.13 µM | LC50 (concentration killing 50% of cells) (K562): > 100 µM | TGI (K562): 11.9 µM | growth at 1 µM (M14): 94% | growth at 1 µM (SK-MEL-28 [9]): 89% | growth at 0.01 µM (BT-549 [10]): 88% | growth at 0.01 µM (UACC-62): 99% | growth at 100 µM (IGROV-1): -51% | growth at 0.1 µM (RXF 393): 83% | growth at 1 µM (KM12): 94% | growth at 0.1 µM (SK-MEL-28 [11]): 102% | GI50 (A498): 4.36 µM | LC50 (A498): 69 µM | TGI (A498): 24.1 µM | growth at 100 µM (Malme-3M): -51% | growth at 0.01 µM (LOX IMVI): 97% | growth at 100 µM (HCT-15 [12]): -38% | growth at 1 µM (HOP-62): 95% | growth at 0.1 µM (BT-549 [13]): 94% | growth at 0.01 µM [14]: 101% | growth at 1 µM (NCI-H23): 88% | GI50 (DU-145 [15]): 8.63 µM | LC50 (50% lethal concentration) (DU-145 [15]): 54.7 µM | TGI (DU-145 [15]): 22.8 µM | growth at 100 µM [16]: -13%

C=CCn1c(C)nc2ccc(Nc3nc(Sc4ccc(N)cc4)nc4ccccc34)cc21
inhibition of growth at 10 µM (OVCAR-8 [4]): 30%
